In ChEMBL document CHEMBL2021870, “Saponins can perturb biologic membranes and reduce the surface tension of aqueous solutions: a correlation?” (Bioorg Med Chem, 2012) one finds CMC, IC50 and EC50 data, which are given here for six molecules.

By IC50 is commonly meant the concentration that inhibits the measured activity by half. As a reminder, the EC50 is the midpoint of the concentration-response curve. A low value points to an effect from little substance.

Data set [1] in a line: Critical micellar concentration of the compound in 0.1 M PBS after 10 mins by Wilhelmy plate method using tensitometer. The format is physicochemical. Particulars: buffer.
Data set [2] deals with ECV-304. Briefly: Membranolytic activity in human ECV304 cells assessed as leakage of intracellular lactate dehydrogenase after 2 hrs by spectrophotometry. In kind it is functional, cell-based. The conditions noted are these: ECV-304, 2 h.
Data set [3] in a line: Reduction in surface tension in 0.1 M PBS after 10 mins by Wilhelmy plate method using tensitometer. In kind it is physicochemical.
In data set [4] the test system is ECV-304. Description: Cytotoxicity against human ECV304 cells after 72 hrs by Hoechst 33258 staining based fluorescence assay. In kind it is functional, cell-based. The conditions noted are these: ECV-304, 72 h.

The molecule `C[C@@H]1O[C@@H](O[C@H]2[C@H](O[C@H]3CC[C@@]4(C)[C@@H](CC[C@]5(C)[C@@H]4CC=C4[C@@H]6CC(C)(C)CC[C@]6(C(=O)O)CC[C@]45C)[C@]3(C)CO)OC[C@H](O)[C@@H]2O)[C@H](O)[C@H](O)[C@H]1O` [ALPHA-HEDERIN] displayed a CMC in data set [1] of 13 µM. The IC50 worked out at 29 µM in the data set on ECV-304 [2] and 35 µM in the data set on ECV-304 [4]. Besides, in data set [3], the EC50 at 10 min stood at 4 µM.
`CC[C@H](CC[C@@H](C)[C@H]1CC[C@H]2[C@@H]3CC=C4C[C@@H](O)CC[C@]4(C)[C@H]3CC[C@]12C)C(C)C` [BETA-SITOSTEROL] registered a CMC in data set [1] of 241 µM. Also, the IC50 with ECV-304 [2] stood at 472 µM; in the data set with ECV-304 [4], 61 µM. The molecule further displayed an EC50 at 10 min in data set [3] of 19 µM.
As for `C[C@@H]1CC[C@@]2(OC1)O[C@H]1[C@@H](O)[C@H]3[C@@H]4CC[C@H]5C[C@@H](O[C@@H]6O[C@H](CO)[C@H](O[C@@H]7O[C@H](CO)C(O)[C@H](O[C@@H]8OC[C@@H](O)[C@H](O)[C@H]8O)[C@H]7O[C@@H]7O[C@H](CO)[C@H](O)[C@H](O[C@@H]8O[C@H](CO)[C@@H](O)[C@H](O)[C@H]8O)[C@H]7O)[C@H](O)[C@H]6O)[C@H](O)C[C@]5(C)[C@H]4CC[C@]3(C)[C@H]1[C@@H]2C` (some centres undefined) [DIGITONIN], in data set [1], the CMC turned out to be 163 µM. Further, the IC50 was found to be 15 µM in the data set on ECV-304 [2] and 13 µM in the data set on ECV-304 [4]. Besides, in data set [3], the EC50 at 10 min is 8 µM.
For `CC1(C)[C@@H](O)CC[C@]2(C)[C@H]3C(=O)C=C4[C@@H]5C[C@@](C)(C(=O)O)CC[C@]5(C)CC[C@@]4(C)[C@]3(C)CC[C@@H]12` [ENOXOLONE] the same measures were 106 µM, 292 µM, 101 µM and 16 µM.
For `CC(C)=CCC[C@](C)(O)[C@H]1CC[C@]2(C)[C@@H]1[C@H](O)C[C@@H]1[C@@]3(C)CC[C@H](O)C(C)(C)[C@@H]3[C@@H](O[C@@H]3O[C@H](CO)[C@@H](O)[C@H](O)[C@H]3O[C@@H]3O[C@@H](C)[C@H](O)[C@@H](O)[C@H]3O)C[C@]12C` [GINSENOSIDE RG2] the same measures were > 127 µM, 783 µM, > 127 µM and 25 µM.
`C[C@@H]1O[C@@H](O[C@H]2[C@H](O[C@H]3CC[C@@]4(C)[C@@H](CC[C@]5(C)[C@@H]4CC=C4[C@@H]6CC(C)(C)CC[C@]6(C(=O)O[C@@H]6O[C@H](CO[C@@H]7O[C@H](CO)[C@@H](O[C@@H]8O[C@@H](C)[C@H](O)[C@@H](O)[C@H]8O)[C@H](O)[C@H]7O)[C@@H](O)[C@H](O)[C@H]6O)CC[C@]45C)[C@]3(C)CO)OC[C@H](O)[C@@H]2O)[C@H](O)[C@H](O)[C@H]1O` [KALOPANAXSAPONIN B] had a CMC in data set [1] of 82 µM. Besides, the IC50 in the data set with ECV-304 [2] and in the data set with ECV-304 [4] was > 164 µM each time. In addition, in data set [3], the response was half-maximal at 10 µM (EC50 at 10 min).
